The values below come from article PMC12926254, “Novel pyrazole carboxylate derivatives as lonazolac bioisosteres with selective COX-2 inhibition: design, synthesis and anti-inflammatory activity” (Molecular Diversity, 2025).

Like-named read-outs stand apart in the source and are kept apart here. Marks after values point to notes of the source that are not given here.

The target in one series is T1, COX-1 (Ovis aries, UniProt P05979).
T1 construct: purchased Biovision K548
T1 sequence (P05979 25-600): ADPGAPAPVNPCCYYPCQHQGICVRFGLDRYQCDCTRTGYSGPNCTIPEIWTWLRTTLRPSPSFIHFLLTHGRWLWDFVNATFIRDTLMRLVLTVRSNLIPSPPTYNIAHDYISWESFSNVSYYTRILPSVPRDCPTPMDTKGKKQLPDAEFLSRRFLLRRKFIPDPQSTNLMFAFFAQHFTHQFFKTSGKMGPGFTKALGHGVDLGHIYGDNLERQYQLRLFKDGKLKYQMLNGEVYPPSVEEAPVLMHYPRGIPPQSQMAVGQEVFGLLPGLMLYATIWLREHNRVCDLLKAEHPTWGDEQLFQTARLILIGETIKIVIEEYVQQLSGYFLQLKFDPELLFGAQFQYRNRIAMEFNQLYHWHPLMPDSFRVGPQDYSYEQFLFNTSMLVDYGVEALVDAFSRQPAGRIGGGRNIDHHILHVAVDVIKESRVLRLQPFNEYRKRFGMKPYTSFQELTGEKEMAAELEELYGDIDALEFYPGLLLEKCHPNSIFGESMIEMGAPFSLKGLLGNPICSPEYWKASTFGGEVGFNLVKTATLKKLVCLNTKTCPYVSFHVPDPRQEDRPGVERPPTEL
The experiment in a line: In vitro COX-1 inhibition (COX-1 Inhibitor Screening Kit-K548, Biovision). It counts as biochemical. Particulars: mean of six values ± standard deviation. Here is the method: (§1) The IC50 value of the tested compounds was determined.
COX-1 inhibitor Screening Protocol: Dissolve the tested compounds in DMSO. Use COX assay buffer to dilute the relevant test concentration by 10X before using. Place 10 µl of diluted test inhibitor or assay buffer in the specified wells instead of the sample screen (S) or enzyme control (EC; no inhibitor). To one of the wells, add 2 µl of SC560 and 8 µl of COX Assay Buffer as an inhibitor control (IC). Before using, combine 2 µl of COX Cofactor with 398 µl of COX Assay Buffer to dilute COX cofactor 200 times. Blend thoroughly. Just before using, mix 5 µl of the provided arachidonic acid with 5 µl of NaOH to make the arachidonic acid solution. Combine quickly using a vortex. To dilute the arachidonic acid/NaOH solution 10 times, add 90 µl of water. There should be 80 µl of reaction mix in each well. Using a multi-channel pipette, add 10 µl of diluted arachidonic acid/NaOH solution to each well to initiate all the reactions at once.

The target of series [1] is T2, COX-2 (Homo sapiens, UniProt P35354).
T2 construct: purchased Biovision K547
T2 sequence (P35354 18-604): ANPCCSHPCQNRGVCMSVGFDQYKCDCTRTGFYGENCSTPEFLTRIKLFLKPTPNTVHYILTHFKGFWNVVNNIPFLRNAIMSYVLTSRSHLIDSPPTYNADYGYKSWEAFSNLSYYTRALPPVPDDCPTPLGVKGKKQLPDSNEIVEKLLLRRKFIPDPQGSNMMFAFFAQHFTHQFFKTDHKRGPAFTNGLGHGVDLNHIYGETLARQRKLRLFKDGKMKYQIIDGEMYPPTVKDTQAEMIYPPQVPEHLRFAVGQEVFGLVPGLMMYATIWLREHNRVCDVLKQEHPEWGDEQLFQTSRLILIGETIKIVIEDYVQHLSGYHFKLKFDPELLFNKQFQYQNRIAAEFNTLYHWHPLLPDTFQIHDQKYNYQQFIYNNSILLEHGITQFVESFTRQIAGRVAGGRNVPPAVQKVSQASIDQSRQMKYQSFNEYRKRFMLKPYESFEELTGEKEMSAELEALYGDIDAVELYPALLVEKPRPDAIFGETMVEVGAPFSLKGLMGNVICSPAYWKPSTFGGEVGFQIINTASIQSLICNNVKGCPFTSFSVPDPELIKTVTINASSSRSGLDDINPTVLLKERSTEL
Nature of the series: In vitro COX-2 inhibition (COX-2 Inhibitor Screening Kit-K547, Biovision). It counts as biochemical. To be noted: for COX-2 S.I.: COX-1 IC50/COX-2 IC50; for IC50: mean of six values ± standard deviation. The procedure: as §1
COX-2 inhibitor Screening Protocol: Dissolve the tested compounds in DMSO. Use COX Assay Buffer to dilute the relevant test concentration by 10X before using. Place 10 µl of diluted test inhibitor or Assay Buffer in the specified wells instead of the sample screen (S) or enzyme control (EC; no inhibitor). […] Before using, combine 2 µl of COX Cofactor with 398 µl of COX Assay Buffer to dilute COX Cofactor 200 times. Blend thoroughly. Just before using, mix 5 µl of the provided arachidonic acid with 5 µl of NaOH to make the arachidonic acid solution. Combine quickly using a vortex. To dilute the arachidonic acid/NaOH solution 10 times, add 90 µl of water. There should be 80 µl of reaction mix in each well. Using a multi-channel pipette, add 10 µl of diluted arachidonic acid/NaOH solution into each well to initiate the reactions concurrently.

Series [2] deals with T2, COX-2. To be noted: cited from earlier work.
For series [3], the system named is PGE2. The arrangement: method as in PMID 36166898. To be noted: LPS-stimulated RAW cells; cited from earlier work.
Series [4] relates to carrageenan-induced rat paw edema. Nature of the series: Carrageenan-induced rat paw edema assay. To be noted: 25 mg/kg. In kind it is in vivo. For orientation: The carrageenan paw model is a standard test of acute inflammation.
The next series relates to TNF-α. Nature of the series: TNF-α production in LPS-activated RAW 264.7 macrophages (ELISA). To be noted: Mus musculus, RAW264.7, read-out: TNF-α IC50. For orientation: ELISA stands for enzyme-linked immunosorbent assay.
Series [5] relates to PGE2. Nature of the series: PGE2 production in LPS-activated RAW 264.7 macrophages (ELISA). To be noted: Mus musculus, RAW264.7, read-out: PGE2 IC50.
The next series can be described thus: MTS cytotoxicity assay. It counts as cell-based. Particulars: mouse, RAW 264.7 macrophages (heading: LPS-induced), read-out: Cytotoxicity IC50 (LPS-induced RAW 264.7 cells). The procedure:
Using Dulbecco’s Modified Eagle Medium (DMEM, Biowest L0060) supplemented with 10% foetal bovine serum (FBS) (Biowest, S1810) and 1% anti-biotic and anti-mycotic (Biowest, L0010-100), the RAW264.7 macrophage cell line (ATCC ® TIB-71TM) was cultivated. The cells were then incubated at 37 °C with 5% CO2 until they were confluent, which should be between 70 and 80%. After two to three days, the growth media was regularly changed. Trypsin–EDTA was then used to wash and collect the cells (Biowest, L0931-500).
The MTS (3-(4,5-dimethylthiazol-2-yl)-5-(3-carboxymethoxy-phenyl)-2-(4-sulfophenyl)-2H-tetrazolium) test (Promega, ab197010) was used to determine cell viability. In short, a 96-well plate was seeded with 5 × 10^3 cells per well, and the cells were then incubated for 24 h at 37 °C and 5% CO2. The cells were then re-incubated for 24 h at 37 °C and 5% CO2 after the medium was discarded and replaced with 180 µl of fresh growth media and 20 µl of sample (1000 ug, 250 ug, 63 ug, 16 ug, and 4 ug µg/mL). 20 µl of MTS was then added to each well, and the mixture was incubated for three hours at 37 °C with 5% CO2. […] Control cells were those that received no treatment.
In general terms: Formazan colour is commonly taken as a measure of viable cells.

Series [6] relates to carrageenan-induced rat paw edema. Nature of the series: Carrageenan-induced rat paw edema assay. In kind it is in vivo. Particulars: for Paw edema thickness ± SEM / Paw edema % inhibition: rat. The procedure:
As previously described, paw thickness was evaluated at 1, 3, and 5 h following carrageenan injection at a dose of 50 mg/kg.

In the next series the test system is iNOS. The experiment in a line: Inducible nitric oxide synthase (iNOS) inhibition in LPS-induced RAW 264.7 cells (ELISA). In kind it is cell-based. Particulars: Mus musculus, RAW264.7. The source says:
NO is produced from L-arginine by iNOS and is utilized in a variety of cell signaling processes. An inducible member of the NOS family, iNOS is increased during pro-inflammatory cytokine activity as a host-defense mechanism. A commercially available quantitative ELISA kit (ab253219 Mouse iNOS Simple Step ELISA® Kit) will be used to evaluate the iNOS enzyme activity of the substances in the cell lysate in accordance with the manufacturer’s instructions.

A further series relates to gastric mucosa. The experiment in a line: Ulcerogenic liability (ulcer index). Particulars: 50 mg/kg orally, three successive days, rats. It counts as in vivo. Here is the method:
[…]. […] Rats were divided into 7 groups and fasted for 18 h before drug administration. The control group received the vehicle (2.5% Tween 80). […] After 2 h, animals were fed. Rats were given the required dose orally for three successive days. After 2 h of the last dose, rats were sacrificed; the stomach of each rat was removed then opened along the greater curvature and rinsed with saline. In order to examine the stomach, it was stretched by pins on a corkboard. The gastric mucosa was carefully inspected for the occurrence of ulcers with the aid of an illuminated magnifying lens (l0x), then ulcer index was calculated according to the method described by Cho and Ogle. Lesions were counted and measured along the greater diameter using transparent ruler. Every five hemorrhagic spots were considered equivalent to 1 mm of ulcer. The ulcer index (mm) was calculated from the sum of the total length of ulcers and hemorrhagic spots in each stomach.

Setting [7] is: 3 h after carrageenan, 50 mg/kg.
Setting [8] is: 5 h after carrageenan, 50 mg/kg.

The IC50 is the midpoint of a concentration-inhibition curve. The molecule `CCOC(=O)COc1ccc(C2=NN(c3ccc(S(C)(=O)=O)cc3)C(c3ccccc3Br)C2)cc1` (centres unmarked) [Compound 15 g, Ethyl 2-(4-(5-(2-bromophenyl)-1-(4-(methylsulfonyl)phenyl)-4,5-dihydro-1H-pyrazol-3-yl)phenoxy)acetate] displayed an IC50 on COX-1 of 8.59 ± 0.33 µM. In addition, on COX-2 [1], the “COX-2 S.I.” value turned out to be 15.07 and the IC50 amounted to 0.575 ± 0.019 µM.

`CCOC(=O)COc1ccc(C2=NN(c3ccc(S(C)(=O)=O)cc3)C(c3ccccc3)C2)cc1` (centres unmarked) [Compound 15a, Ethyl 2-(4-(1-(4-(methylsulfonyl)phenyl)-5-phenyl-4,5-dihydro-1H-pyrazol-3-yl)phenoxy) acetate] returned a 50% inhibitory concentration (IC50) against COX-1 of 7.42 ± 0.45 µM. Also, on COX-2 [1], the “COX-2 S.I.” value is recorded as 1.90 and it took 3.9 ± 0.129 µM to reach half-maximal inhibition (IC50).

In the case of `CCOC(=O)COc1ccc(C2=NN(c3ccc(S(C)(=O)=O)cc3)C(c3ccc(C)cc3)C2)cc1` (centres unmarked) [Compound 15b, Ethyl 2-(4-(1-(4-(methylsulfonyl)phenyl)-5-(p-tolyl)-4,5-dihydro-1H-pyrazol-3-yl)phenoxy)acetate], the 50% inhibitory concentration (IC50) at COX-1 turned out to be 11.4 ± 0.42 µM; on COX-2 [1], 1.94 ± 0.064 µM. Also, the “COX-2 S.I.” value on COX-2 [1] is listed as 5.89.

Take `Cc1ccc(N/N=C2\C(=N)N(c3ccc(S(N)(=O)=O)cc3)N=C2N)cc1` [Compound 8a]: the “COX-2 selectivity index (S.I.)” value on COX-2 [2] is on record as 8.41.

As for `CCOC(=O)COc1ccc(C2=NN(c3ccc(S(C)(=O)=O)cc3)C(c3ccc([N+](=O)[O-])cc3)C2)cc1` (centres unmarked) [Compound 15f, Ethyl 2-(4-(1-(4-(methylsulfonyl)phenyl)-5-(4-nitrophenyl)-4,5-dihydro-1H-pyrazol-3-yl)phenoxy)acetate], the 50% inhibitory concentration (IC50) against COX-1 came out at 6.83 ± 0.25 µM; against COX-2 [1] it was 1.59 ± 0.052 µM. Moreover, the “COX-2 S.I.” value at COX-2 [1] came to 4.30.

On to `CCOC(=O)COc1ccc(C2=NN(c3ccc(S(C)(=O)=O)cc3)C(c3ccc(Cl)cc3)C2)cc1` (centres unmarked) [Compound 15e, Ethyl 2-(4-(5-(4-chlorophenyl)-1-(4-(methylsulfonyl)phenyl)-4,5-dihydro-1H-pyrazol-3-yl)phenoxy)acetate], for which the half-inhibitory concentration (IC50) against COX-1 is 3.01 ± 0.12 µM. On COX-2 [1], the “COX-2 S.I.” value came to 4.05 and 0.742 ± 0.025 µM corresponded to half-maximal inhibition (IC50).

`N=C1/C(=N\Nc2ccc(Cl)cc2)C(N)=NN1c1ccc(S(N)(=O)=O)cc1` [Compound 8b]: the “COX-2 selectivity index (S.I.)” value on COX-2 [2] is reported as 10.55.

With `O=C(O)COc1ccc(C(=O)/C=C/c2cn(-c3ccccc3)nc2-c2ccc([N+](=O)[O-])cc2)cc1` [Compound 10], the 50% inhibitory concentration (IC50) in the series on PGE2 [3] was 11 µM.

Broadly, the ED50 is the dose at which the effect has come halfway, by size or by number of responders. A lower ED50 goes with an effect at a small dose. With `Cc1ccc(-c2cc(C(F)(F)F)nn2-c2ccc(S(N)(=O)=O)cc2)cc1` [Celecoxib, celecoxib, reference compound], the “% inhibition (edema)” value in series [4] is given as 34.97%; in [6] (50 mg/kg), 97.48%. Further, the IC50 amounted to 0.87 ± 0.03 µM in the series on TNF-α, 0.38 ± 0.027 µM in the series on PGE2 [5] and 0.48 ± 0.04 µM with iNOS. The concentration for half-maximal inhibition (IC50) at 24 h in “MTS cytotoxicity assay” worked out at 149 ± 5.3 µM. Further, the “Paw edema thickness ± SEM” value is reported as 3.43 ± 0.004 mm in [6] (1 h after carrageenan, 50 mg/kg); 3.1 ± 0.011 mm in series [6] (setting [7]); 2.52 ± 0.0095 mm in series [6] (setting [8]). The “Paw edema % inhibition” value in series [6] (setting [7]) came out at 38.3%; in [6] (setting [8]), 56.3%. For the same molecule, in series [6] (Rattus norvegicus, dose producing 50% edema inhibition), the ED50 is 40.4 mg/kg. Also, the “Average no of ulcer” value in the series with gastric mucosa was 0.48 ± 0.015***^b. Further, the Average severity with gastric mucosa is reported as 0.66 ± 0.026***^b.
